Test results: patent US10259810B2, “N-sulfonylated pyrazolo[3,4-b]pyridin-6-carboxamides and method of use” (AbbVie S.à.r.l., priority 2015, dated 2019)

Experiments:
ΔF508-CFTR [1] = biological target: T1, ΔF508-CFTR (Homo sapiens, UniProt P13569, DEL508-508); experiment: CFTR cell surface levels using HRP-tagged ΔF508-CFTR expressing CFBE cells, in the presence of a co-corrector; type: cell-based; settings: HRP-tagged ΔF508-CFTR CFBE cells, in the presence of 3 μM co-corrector; for EC50: read-out: EC50
T1 construct: host or cells: CFBE41o-, doxycycline-inducible
Outline: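 Chemiluminescent read-out of surface HRP (15 min, dark) after PBS washes. Activity is normalized as 100×(sample−DMSO)/(3 μM co-corrector alone−DMSO).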

ΔF508-CFTR [2] = biological target: T1, ΔF508-CFTR; experiment: CFTR cell surface levels using HRP-tagged ΔF508-CFTR expressing CFBE cells, intrinsic corrector capacity; type: cell-based; design: % Activation: concentration or dose not given beside the values; settings: HRP-tagged ΔF508-CFTR expressing CFBE41o- cells, compound alone (intrinsic corrector capacity), 20 hours at 33° C.; for EC50: read-out: EC50
Outline: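 Read-out: chemiluminescent HRP activity of ECL4-HRP-tagged ΔF508-CFTR at the cell surface, 15 min substrate in dark. Normalized as 100×(sample−DMSO)/(positive control−DMSO).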

T1 sequence (P13569 with tags, fused parts or gaps DEL508-508): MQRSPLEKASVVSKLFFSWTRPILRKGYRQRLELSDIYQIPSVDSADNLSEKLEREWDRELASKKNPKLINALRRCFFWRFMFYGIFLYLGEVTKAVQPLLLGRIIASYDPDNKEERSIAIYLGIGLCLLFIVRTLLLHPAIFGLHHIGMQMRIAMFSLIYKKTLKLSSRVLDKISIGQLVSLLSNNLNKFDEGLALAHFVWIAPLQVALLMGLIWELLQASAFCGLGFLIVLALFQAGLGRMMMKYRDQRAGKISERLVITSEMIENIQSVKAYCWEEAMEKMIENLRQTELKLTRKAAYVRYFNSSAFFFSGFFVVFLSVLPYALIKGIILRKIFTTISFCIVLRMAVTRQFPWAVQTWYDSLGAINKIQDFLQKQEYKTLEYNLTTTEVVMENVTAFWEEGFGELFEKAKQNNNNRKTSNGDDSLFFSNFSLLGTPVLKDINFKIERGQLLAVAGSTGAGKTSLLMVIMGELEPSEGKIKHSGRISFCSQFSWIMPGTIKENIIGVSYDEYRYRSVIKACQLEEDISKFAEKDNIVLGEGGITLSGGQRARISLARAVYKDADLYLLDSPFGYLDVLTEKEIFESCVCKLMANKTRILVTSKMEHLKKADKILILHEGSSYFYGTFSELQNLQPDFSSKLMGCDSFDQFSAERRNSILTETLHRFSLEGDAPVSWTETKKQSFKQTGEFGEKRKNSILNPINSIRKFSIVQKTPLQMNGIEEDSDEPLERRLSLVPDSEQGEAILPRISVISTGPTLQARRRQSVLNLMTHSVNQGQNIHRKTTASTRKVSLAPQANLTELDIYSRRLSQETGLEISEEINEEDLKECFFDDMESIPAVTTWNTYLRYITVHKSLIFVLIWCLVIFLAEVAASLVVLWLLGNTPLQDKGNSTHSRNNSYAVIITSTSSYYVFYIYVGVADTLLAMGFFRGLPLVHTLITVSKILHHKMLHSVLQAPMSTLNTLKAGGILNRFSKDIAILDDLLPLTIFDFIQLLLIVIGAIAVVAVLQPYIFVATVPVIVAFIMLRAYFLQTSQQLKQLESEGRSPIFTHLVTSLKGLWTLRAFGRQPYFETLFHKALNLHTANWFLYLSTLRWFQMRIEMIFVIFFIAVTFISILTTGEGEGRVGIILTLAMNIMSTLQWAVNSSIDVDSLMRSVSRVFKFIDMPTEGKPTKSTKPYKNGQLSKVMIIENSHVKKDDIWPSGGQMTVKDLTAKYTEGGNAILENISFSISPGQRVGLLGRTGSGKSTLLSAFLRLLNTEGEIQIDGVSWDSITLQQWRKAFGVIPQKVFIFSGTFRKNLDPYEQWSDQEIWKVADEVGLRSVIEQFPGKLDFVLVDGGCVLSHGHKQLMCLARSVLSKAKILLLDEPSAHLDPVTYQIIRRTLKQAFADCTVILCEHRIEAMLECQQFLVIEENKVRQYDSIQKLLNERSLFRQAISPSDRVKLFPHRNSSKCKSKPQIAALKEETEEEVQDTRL

SMILES | % Activation (ΔF508-CFTR [1]) [%] | EC50 (ΔF508-CFTR [1]) [nM] | % Activation (ΔF508-CFTR [2]) [%] | EC50 (ΔF508-CFTR [2]) [nM]
C[C@H]1CN(c2cc(C(=O)NS(=O)(=O)N(C)C)nc3c2c(C2CCC2)nn3C2CCCCC2)CCN1Cc1ccccc1 [Compound 581, 4-[(3S)-4-benzyl-3-methylpiperazin-1-yl]-3-cyclobutyl-1-cyclohexyl-N-(dimethylsulfamoyl)-1H-pyrazolo[3,4-b]pyridine-6-carboxamide] | 191.3 | 761 | 33.38 | 370
C[C@@H]1CN(c2cc(C(=O)NS(=O)(=O)N(C)C)nc3c2c(C2CCC2)nn3C2CCCCC2)CCN1Cc1ccccc1 [Compound 582, 4-[(3R)-4-benzyl-3-methylpiperazin-1-yl]-3-cyclobutyl-1-cyclohexyl-N-(dimethylsulfamoyl)-1H-pyrazolo[3,4-b]pyridine-6-carboxamide] | 245.15 | 271 | 75.38 | 370
CN(C)S(=O)(=O)NC(=O)c1cc(N2CCC3(CC2)CCN(C2CC2)CC3)c2c(C3CCC3)nn(-c3ccc(F)cc3)c2n1 [Compound 584, 3-cyclobutyl-4-(9-cyclopropyl-3,9-diazaspiro[5.5]undecan-3-yl)-N-(dimethylsulfamoyl)-1-(4-fluorophenyl)-1H-pyrazolo[3,4-b]pyridine-6-carboxamide] | 337.55 | 272 | 164.3 | 177
COC1CN(C2CCN(c3cc(C(=O)NS(C)(=O)=O)nc4c3c(C3CCC3)nn4-c3ccc(F)cc3)CC2)C1 [Compound 585, 3-cyclobutyl-1-(4-fluorophenyl)-N-(methanesulfonyl)-4-[4-(3-methoxyazetidin-1-yl)piperidin-1-yl]-1H-pyrazolo[3,4-b]pyridine-6-carboxamide] | 509.7 | 248 | 316.6 | 1240
CS(=O)(=O)NC(=O)c1cc(N2CCC(N3CCCC(C(F)(F)F)C3)CC2)c2c(C3CCC3)nn(-c3ccc(F)cc3)c2n1 (stereo not drawn) [Compound 586, 3-cyclobutyl-1-(4-fluorophenyl)-N-(methanesulfonyl)-4-[3-(trifluoromethyl)[1,4'-bipiperidin]-1'-yl]-1H-pyrazolo[3,4-b]pyridine-6-carboxamide] | 618.65 | 37.1 | 331.67 | 52.4
COC1CCCN(C2CCN(c3cc(C(=O)NS(C)(=O)=O)nc4c3c(C3CCC3)nn4-c3ccc(F)cc3)CC2)C1 (stereo not drawn) [Compound 587, 3-cyclobutyl-1-(4-fluorophenyl)-N-(methanesulfonyl)-4-(3-methoxy[1,4'-bipiperidin]-1'-yl)-1H-pyrazolo[3,4-b]pyridine-6-carboxamide] | 504.6 | 398 | 277.1 | 235
CC1(C)CN(C2CCN(c3cc(C(=O)NS(C)(=O)=O)nc4c3c(C3CCC3)nn4-c3ccc(F)cc3)CC2)CCO1 [Compound 588, 3-cyclobutyl-4-[4-(2,2-dimethylmorpholin-4-yl)piperidin-1-yl]-1-(4-fluorophenyl)-N-(methanesulfonyl)-1H-pyrazolo[3,4-b]pyridine-6-carboxamide] | 571.2 | 29 | 366.8 | 126
COCCN(C)C1CCN(c2cc(C(=O)NS(=O)(=O)N(C)C)nc3c2c(C2CCC2)nn3-c2ccc(F)cc2)CC1 [Compound 591, 3-cyclobutyl-N-(dimethylsulfamoyl)-1-(4-fluorophenyl)-4-{4-[(2-methoxyethyl)(methyl)amino]piperidin-1-yl}-1H-pyrazolo[3,4-b]pyridine-6-carboxamide] | 384 | 1590 | 189.1 | 795
CONS(=O)(=O)NC(=O)c1cc(N2CCC(N3CCOCC3)CC2)c2c(C3CCC3)nn(-c3ccc(F)cc3)c2n1 [Compound 592, 3-cyclobutyl-1-(4-fluorophenyl)-N-(methoxysulfamoyl)-4-[4-(morpholin-4-yl)piperidin-1-yl]-1H-pyrazolo[3,4-b]pyridine-6-carboxamide] | 518.55 | 56.8 | 300.8 | 183
CS(=O)(=O)NC(=O)c1cc(C2CCN(C3CCC(F)(F)CC3)CC2)c2c(C3CCC3)nn(-c3ccc(F)cc3)c2n1 [Compound 593, 3-cyclobutyl-4-[1-(4,4-difluorocyclohexyl)piperidin-4-yl]-1-(4-fluorophenyl)-N-(methanesulfonyl)-1H-pyrazolo[3,4-b]pyridine-6-carboxamide] | 366.7 | 194 | 157.8 | 190
CN(C)S(=O)(=O)NC(=O)c1cc(CN2CCC(N3CCOCC3)CC2)c2c(C3CCC3)nn(-c3ccc(F)cc3)c2n1 [Compound 595, 3-cyclobutyl-N-(dimethylsulfamoyl)-1-(4-fluorophenyl)-4-{[4-(morpholin-4-yl)piperidin-1-yl]methyl}-1H-pyrazolo[3,4-b]pyridine-6-carboxamide] | 231.9 | 1430 | 58.87 | 1520
CS(=O)(=O)NC(=O)c1cc(CN2CCC(N3CCOCC3)CC2)c2c(C3CCC3)nn(-c3ccc(F)cc3)c2n1 [Compound 596, 3-cyclobutyl-1-(4-fluorophenyl)-N-(methanesulfonyl)-4-{[4-(morpholin-4-yl)piperidin-1-yl]methyl}-1H-pyrazolo[3,4-b]pyridine-6-carboxamide] | 304.8 | 1910 | 104.3 | 1380
CC(C)N1CCC(c2cc(C(=O)NS(=O)(=O)N(C)C)nc3c2c(C2CCC2)nn3-c2ccc(F)cc2)CC1 [Compound 598, 3-cyclobutyl-N-(dimethylsulfamoyl)-1-(4-fluorophenyl)-4-[1-(propan-2-yl)piperidin-4-yl]-1H-pyrazolo[3,4-b]pyridine-6-carboxamide] | 153.9 | ≥ 10000 | 28.03 | 
CS(=O)(=O)NC(=O)c1cc(C2CCN(CC3CCOCC3)CC2)c2c(C3CCC3)nn(-c3ccc(F)cc3)c2n1 [Compound 600, 3-cyclobutyl-1-(4-fluorophenyl)-N-(methanesulfonyl)-4-{1-[(oxan-4-yl)methyl]piperidin-4-yl}-1H-pyrazolo[3,4-b]pyridine-6-carboxamide] | 326.1 | 1620 | 126.5 | 1210
CN(C)S(=O)(=O)NC(=O)c1cc(C2CCN(CC3CCOCC3)CC2)c2c(C3CCC3)nn(-c3ccc(F)cc3)c2n1 [Compound 601, 3-cyclobutyl-N-(dimethylsulfamoyl)-1-(4-fluorophenyl)-4-{1-[(oxan-4-yl)methyl]piperidin-4-yl}-1H-pyrazolo[3,4-b]pyridine-6-carboxamide] | 273.9 | 625 | 112 | 2180
COC1CC(CN2CCC(c3cc(C(=O)NS(C)(=O)=O)nc4c3c(C3CCC3)nn4-c3ccc(F)cc3)CC2)C(OC)O1 (stereo not drawn) [Compound 602, 3-cyclobutyl-4-{1-[(2,5-dimethoxyoxolan-3-yl)methyl]piperidin-4-yl}-1-(4-fluorophenyl)-N-(methanesulfonyl)-1H-pyrazolo[3,4-b]pyridine-6-carboxamide] | 359.1 | 581 | 133.6 | 1180
